{"source": "patent US11357774B2", "about": "“Use of a quinoline sulfonyl compound for treatment of inflammation, inflammatory disorders, autoimmune disorders and malaria” (priority 2019, dated 2022)", "key": {"[1]": {"tested_on": "IL-8 secretion in THP-1 cells", "assay": "IL-8 secretion in TNF-α-stimulated THP-1 cells (ELISA)", "assay_type": "cell-based, human", "details": "THP-1, TNF-α 10 ng/mL, 6 hours", "description": "For comparison, BTZ (6 nM), CFZ (1 nM), and DEX (2 μM) were also included. *** is p<0.001, which denotes a significant difference from the TNF-α-only group, determined by a Dunnett's test. The values presented are the mean±SEM (n=3).\n(§1) The enzyme-linked immunosorbent assay (ELISA) is a quantitative measurement based on sandwich-based enzyme linking, using a protein-specific capture antibody to determine the levels of single or multiple chemokines and cytokines.\nThe data in FIG. 12 show the levels of IL-8 secreted in the THP-1 culture medium in response to TNF-α alone (10 ng/mL) or in combination with varying concentrations (0.5, 1.0, 2, 4 or 6 μM) of VR23. For comparison, BTZ (6 nM), CFZ (1 nM) and DEX (2 μM) were also included. The measurement time was 6-hour post-stimulation. The measurement was carried out with a single-analyte ELISA."}, "[2]": {"tested_on": "IL-6 secretion in SW-982 synovial cells", "assay": "IL-6 secretion in IL-1β-stimulated SW-982 synovial cells (ELISA)", "assay_type": "cell-based, human", "details": "SW-982, IL-1β 1 ng/mL, 6 hours; VR23 10 μM, HCQ 60 μM", "description": "The mean±SEM (n=2) values were determined by a Dunnett's test.\nas §1\nThe measurement was carried out with a single-analyte ELISA. […] While not wishing to be limited by theory, cytokine IL-6 is strongly implicated to the progress of rheumatoid arthritis^29."}, "[3]": {"tested_on": "myeloperoxidase (MPO) activity in right lung tissues", "assay": "Myeloperoxidase assay in lung tissues of mice with LPS-induced ALI", "assay_type": "in vivo, mouse", "details": "LPS 0.4 mg/kg, 24 hours, VR23 30 mg/kg intraperitoneally", "description": "Six to eight week old female BALB/c mice strain 028 (Charles River Laboratories, QC, Canada) were fed regularly with laboratory chow and water upon arrival at the Laurentian University Animal Care Facility (Sudbury, ON, Canada). To determine a useful dose of LPS, three mice per group were treated for 24 hours with the following three different conditions: (i) no LPS, (ii) 0.25 mg of LPS per kg of body weight, and (iii) 0.50 mg of LPS per kg of body weight. The different concentrations of LPS were administered intranasally to the three BALB/c mice per concentration. After the animals were sacrificed, the bronchoalveolar lavage fluid (BALF) of each mouse was collected and analyzed for LPS-induced inflammatory responses. […] Experimental design involving the use of VR23 was based on a previous acute lung injury (ALI) instillation by Wei and Huang^26. Briefly, mice were divided into 5 groups, with 3-5 mice per group: no lung injury (i.e., no treat), sham treated, LPS-only, LPS+DEX, and LPS+VR23. […] Bronchoalveolar lavage fluid was collected and the number of cells infiltrated into the bronchoalveolar fluid were counted (FIG. 2). […]\nThe accumulation of neutrophils in the lung tissues was analyzed with a colorimetric MPO assay kit (Sigma Aldrich), which measures the amount of myeloperoxidase activity^26. […] The MPO activity was then determined as per the protocol provided by the supplier. […]"}}, "data": [{"smiles": "O=[N+]([O-])c1ccc(S(=O)(=O)N2CCN(c3ccnc4cc(Cl)ccc34)CC2)c([N+](=O)[O-])c1", "note": "[VR23, 7-chloro-4-(4-(2,4-dinitrophenylsulfonyl)piperazin-1-yl)quinoline]", "values": [{"measurement": "level of IL-8", "setting": "[1]; 0.5 μM", "value": "significantly (p<0.001) reduced the level of IL-8"}, {"measurement": "IL-8 secretion", "setting": "[1]; VR23 at IC50 concentration (between 2 and 4 μM), BTZ 6 nM, CFZ 1 nM", "value": "effectively reduces IL-8 secretion"}, {"measurement": "secretion of IL-6", "setting": "[2]", "value": "substantially reduced the secretion of IL-6"}, {"measurement": "myeloperoxidase (MPO) in lung tissues", "setting": "[3]", "value": "strong inhibitor of MPO"}]}]}
